Active and inactive are the calls of the source. The calls are words filed in the database; no cut-off is given here.

The subject of experiment [1] is KB. The experiment can be described thus: Cytotoxicity against human KB cells after 72 hrs by Alamar blue assay. The experiment is classed as cell-based. On the technique in general: Alamar Blue is a resazurin reagent that responds to reducing activity.
The nature of experiment [2]: Inhibition of beta-hematin formation after 60 mins relative to beta-hematin. The experiment is classed as functional.
Experiment [3] has as its system Plasmodium falciparum. The experiment can be described thus: Antiplasmodial activity against chloroquine-resistant Plasmodium falciparum W2 assessed as parasite survival after 2 days by YOYO-1 staining-based flow cytometric analysis. Format: functional, organism-based. The conditions noted are these: W2, 48 h. (In general: Flow cytometry measures light scatter and fluorescence of single cells or particles in a stream.)

In experiment [4] the test system is Plasmodium falciparum. The experiment can be described thus: Antiplasmodial activity against chloroquine-resistant Plasmodium falciparum K1 assessed as parasite growth inhibition after 24 hrs by [3H]-hypoxathine incorporation assay. Format: functional, organism-based.
Experiment [5] concerns Plasmodium falciparum. The experiment can be described thus: Antiplasmodial activity against chloroquine-sensitive Plasmodium falciparum 3D7 assessed as parasite growth inhibition after 24 hrs by [3H]-hypoxathine incorporation assay. The experiment is classed as functional, organism-based.
Experiment [6] can be described thus: Inhibition of beta-hematin formation at 10 times parental IC50 after 60 mins. The experiment is classed as functional.

Regarding `CCN(CC)CCCC(C)Nc1ccnc2cc(Cl)ccc12` (stereo not drawn) [CHLOROQUINE], the IC50 was determined as 34000 nM in experiment [1] (Homo sapiens, KB, 72 h) and 1.9 equiv in experiment [2].

As for `CCc1c(OCc2ccccc2)c(=O)ccn1CCCNc1ccnc2cc(Cl)ccc12`, the IC50 in experiment [1] (Homo sapiens, KB, 72 h) came to 15000 nM; in experiment [2], 0.41 equiv; in experiment [3] it was 2320 nM; in experiment [4] (Plasmodium falciparum, K1), 71600 nM; in experiment [5] it was 120 nM.

For the compound `CCCCCCCCn1ccc(=O)c(O)c1C`, the IC50 in experiment [4] (Plasmodium falciparum, K1) is 1800 nM; in experiment [5], 2380 nM.

Turning to `Cc1c(O)c(=O)ccn1CCCCCCNc1ccnc2cc(Cl)ccc12`, the IC50 in experiment [1] (Homo sapiens, KB, 72 h) was found to be 4000 nM; in experiment [2] it was 0.18 equiv; in experiment [3], 70 nM; in experiment [4] (Plasmodium falciparum, K1), 160 nM; in experiment [5], 390 nM.

For `CCCCCCn1ccc(=O)c(OCc2ccccc2)c1C`, in experiment [6], the inhibition result was “inactive”.

For the compound `CCc1c(O)c(=O)ccn1CCNc1ccnc2cc(Cl)ccc12`, the IC50 is 1.1 equiv in experiment [2]; 1240 nM in experiment [3]; 890 nM in experiment [4] (Plasmodium falciparum, K1); 400 nM in experiment [5].

For the compound `Cc1c(OCc2ccccc2)c(=O)ccn1CCCNc1ccnc2cc(Cl)ccc12`, the IC50 turned out to be 67000 nM in experiment [1] (Homo sapiens, KB, 72 h); 0.49 equiv in experiment [2]; 2150 nM in experiment [3]; 3570 nM in experiment [4] (Plasmodium falciparum, K1); 280 nM in experiment [5].

In the case of `Cc1c(OCc2ccccc2)c(=O)ccn1C`, in experiment [6], the inhibition result was “inactive”.

`COc1c(C)n(CCCCNc2ccnc3cc(Cl)ccc23)ccc1=O`: the IC50 in experiment [1] (Homo sapiens, KB, 72 h) came to 27000 nM; in experiment [2], 0.75 equiv; in experiment [3], 760 nM; in experiment [4] (Plasmodium falciparum, K1), 220 nM; in experiment [5], 70 nM.

On to `Cc1c(OCc2ccccc2)c(=O)ccn1CCNc1ccnc2cc(Cl)ccc12`, for which the IC50 came out at 54000 nM in experiment [1] (Homo sapiens, KB, 72 h); 0.93 equiv in experiment [2]; 9930 nM in experiment [3]; 3150 nM in experiment [4] (Plasmodium falciparum, K1); 490 nM in experiment [5].

Consider `Cc1c(OCc2ccccc2)c(=O)ccn1CCCCCCNc1ccnc2cc(Cl)ccc12`, for which the IC50 was found to be 158000 nM in experiment [1] (Homo sapiens, KB, 72 h); 0.25 equiv in experiment [2]; 390 nM in experiment [3]; 4380 nM in experiment [4] (Plasmodium falciparum, K1); 35700 nM in experiment [5].

As for `COc1c(C)n(CCCCCCNc2ccnc3cc(Cl)ccc23)ccc1=O`, the IC50 is 47000 nM in experiment [1] (Homo sapiens, KB, 72 h); 1.07 equiv in experiment [2]; 90 nM in experiment [3]; 2800 nM in experiment [4] (Plasmodium falciparum, K1); 130 nM in experiment [5].

As for `CCc1c(OCc2ccccc2)c(=O)ccn1CCCCCCNc1ccnc2cc(Cl)ccc12` [listing 1 of 2 here], the IC50 in experiment [1] (kb) was 4000 nM; in experiment [2], 0.16 equiv; in experiment [3] it was 20 nM; in experiment [4], 80 nM.

As to `Cc1c(O)c(=O)ccn1CCNc1ccnc2cc(Cl)ccc12`, the IC50 in experiment [2] was 2.9 equiv; in experiment [3], 280 nM; in experiment [4] (Plasmodium falciparum, K1), 32600 nM; in experiment [5] it was 10800 nM.

For `CCc1c(O)c(=O)ccn1CCCCCCNc1ccnc2cc(Cl)ccc12`, the IC50 in experiment [1] (Homo sapiens, KB, 72 h) came to 44000 nM; in experiment [2], 0.49 equiv; in experiment [3], 90 nM; in experiment [4] (Plasmodium falciparum, K1) it was 610 nM; in experiment [5], 80 nM.

With `CCc1c(O)c(=O)ccn1CCCNc1ccnc2cc(Cl)ccc12`, the IC50 in experiment [1] (Homo sapiens, KB, 72 h) stood at 55000 nM; in experiment [2] it was 1.3 equiv; in experiment [3] it was 540 nM; in experiment [4] (Plasmodium falciparum, K1), 380 nM; in experiment [5] it was 120 nM.

Regarding `CCc1c(OC)c(=O)ccn1CCCCCCNc1ccnc2cc(Cl)ccc12`, the IC50 in experiment [2] is 0.47 equiv; in experiment [3], 220 nM.

In the case of `CCc1c(OCc2ccccc2)c(=O)ccn1CCCCNc1ccnc2cc(Cl)ccc12`, the IC50 in experiment [1] (Homo sapiens, KB, 72 h) stood at 9000 nM; in experiment [2] it was 0.19 equiv; in experiment [3], 100 nM; in experiment [4] (Plasmodium falciparum, K1), 130 nM; in experiment [5], 4 nM.

With `CCc1c(OCc2ccccc2)c(=O)ccn1CCCCCCNc1ccnc2cc(Cl)ccc12` [listing 2 of 2 here], the IC50 was determined as 7000 nM in experiment [1] (Homo sapiens, KB, 72 h); 100 nM in experiment [4] (Plasmodium falciparum, K1); 10 nM in experiment [5].

As for `Cc1c(OCc2ccccc2)c(=O)ccn1CCCCNc1ccnc2cc(Cl)ccc12`, the IC50 in experiment [1] (Homo sapiens, KB, 72 h) worked out at 119000 nM; in experiment [2], 0.27 equiv; in experiment [3], 1120 nM; in experiment [4] (Plasmodium falciparum, K1), 2200 nM; in experiment [5] it was 50 nM.

With `CCc1c(OCc2ccccc2)c(=O)ccn1CCNc1ccnc2cc(Cl)ccc12`, the IC50 in experiment [1] (Homo sapiens, KB, 72 h) is 51000 nM; in experiment [2], 0.5 equiv; in experiment [3], 2590 nM; in experiment [4] (Plasmodium falciparum, K1) it was 8430 nM; in experiment [5], 950 nM.

Regarding `COc1cc([C@@H]2c3cc4c(cc3[C@H](O)[C@H]3COC(=O)[C@H]23)OCO4)cc(OC)c1OC` [PODOFILOX], in experiment [1] (Homo sapiens, KB, 72 h), the IC50 was 0.7 nM.

Take `CCCCCCCCn1ccc(=O)c(OCc2ccccc2)c1C`: the inhibition entry in experiment [6] was “inactive”.

`CCc1c(OC)c(=O)ccn1CCCCNc1ccnc2cc(Cl)ccc12`: the IC50 in experiment [2] was 1.71 equiv; in experiment [3], 210 nM.

In the case of `CCc1c(O)c(=O)ccn1CCCCNc1ccnc2cc(Cl)ccc12`, the IC50 in experiment [1] (Homo sapiens, KB, 72 h) was found to be 76000 nM; in experiment [2], 0.98 equiv; in experiment [3], 160 nM; in experiment [4] (Plasmodium falciparum, K1) it was 270 nM; in experiment [5], 50 nM.

Turning to `Cc1c(OCc2ccccc2)c(=O)ccn1C(C)C`, the inhibition entry in experiment [6] was “inactive”.

As for `Cc1c(O)c(=O)ccn1CCCCNc1ccnc2cc(Cl)ccc12`, the IC50 in experiment [1] (Homo sapiens, KB, 72 h) is 185000 nM; in experiment [2], 0.66 equiv; in experiment [3], 80 nM; in experiment [4] (Plasmodium falciparum, K1) it was 70 nM; in experiment [5] it was 30 nM.

The record behind these values is ChEMBL document CHEMBL2407044, “Synthesis, Antiplasmodial Activity, and β-Hematin Inhibition of Hydroxypyridone-Chloroquine Hybrids” (ACS Med Chem Lett, 2013).
